According to patent US5705687A, “Neurotropic drug and method for preparation of same” (priority 1993, dated 1998):
Values joined by “and” are separate entries in the source; they are usually repeats but may differ in a detail not shown here. Identical values can stand only once. Counter-ions that a name gives are not always drawn.

Columns and labels:
[1] = Acute toxicity in mice (Litchfield-Wilcockson); assay type: in vivo, white crossbred mice; details: mouse, in vivo
mice [2] = assay: Acute toxicity in mice (Litchfield-Wilcockson); assay type: in vivo, white crossbred mice; details: i.p., single dose
mice [3] = assay: Rotating rod: myorelaxation and movement coordination; assay type: in vivo, white crossbred mice; details: same dosage range (0.1 to 150 mg/kg), entire test period 3.5 hours
Description: (§1) The myorelaxing effect of the new compounds was tested by the method of the "rotating rod"(Dunham N. W., Miga T. S., A note on a simplex apparatus for detecting neurological deficit in rat and mice, J. Am. Pharm. Ass., 1957, vol. 46, No. 3, pp. 208-209), which allows one to record any abnormalities in coordination and balance, as well as ataxia. The mice in the laboratory tests were placed on a horizontal rod, 2 cm in diameter, rotating at a speed of 5 revolutions per minute. The object was to register the number of mice which were able to maintain equilibrium on the rod for two minutes. Any presence of a myorelaxing component was considered to be a side effect of the substance being studied.

mice [4] = assay: Orientation reflexes: test of ascent onto an inclined net; details: 0.1 to 150 mg/kg
mice [5] = assay: Histotoxic hypoxia (sodium nitroprussiate), lifespan; assay type: in vivo; details: for Lifespan, % effect: Na-nitro-prussiate alone = 100
Description: (§2) The antihypoxic properties of the new compounds were tested in the models of hypoxic normobaric, hemic and histotoxic hypoxia. The hypoxic (hypercapnic) normobaric hypoxia was induced by placing the mice in hermetically sealed transparent boxes, subdivided into compartments, 80 cm^3 each. The animals were observed until all respiratory movements ceased. The hemic hypoxia was induced by the intraperitoneal administration of sodium nitrite in a dose of 400 mg/kg. The hystotoxic hypoxia was induced by the intraperitoneal administration of sodium nitroprussiate, in a dose of a 20 mg/kg dosage.

mice [6] = assay: Hemic hypoxia (sodium nitrite), lifespan; assay type: in vivo; details: for Lifespan, % effect: Na-nitrite alone = 100
Description: as §2

[7] = Solubility and hygroscopicity; assay type: physicochemical; details: powder
central nervous system = assay: Neuropharmacological screening, overall findings; assay type: in vivo, mice; details: of all the salts derived
Description: as §1

mice [8] = assay: Spontaneous motor activity (SMA), 40-channel automatic motor meter; details: for Average SMA, M ± m: control 632.8 ± 35.2; for Relative change in activity (%): control = 100
mice [9] = assay: Conditioned reaction of passive avoidance (CPRA), amnesia by electric shock; assay type: in vivo; details: for Latent period after training: 24 h, amnesia control 31.1; for % effect (latent period): control + amnesia 91.2, w/o amnesia 288.1; for Δt, increase in latent period (t ± m, sec): amnesia control -3 ± 6
Source text: The effect produced by the new substance on the processes of the central nervous system was examined on the model of one-time training of mice, of conditioned reaction of passive avoidance (CPRA), where the amnesic effect was produced by electric shock. During the tests, a two-section chamber was used to condition a certain reflex to the lit and darkened sections. First, for two minutes, the amount of time was registered, that a mouse spent in the lit section before entering the darkened section. Then, while in the darkened section, the animal would receive a single electric shock through the electrode floor (training). The training was immediately followed by an electric shock (50 Hz, 0.2 see). […] The substance was intraperitoneally administered 40 min. prior to the start of the training, the control group received a physiological solution. […] The anti-amnesic properties of the new compound are represented by an increase in the latent period before and after the training. (Δt)

mice [10] = assay: Soporific action of barbital sodium; details: for Duration of sleep, % effect / Lateral position, % effect: barbital sodium alone = 100; for increase of sleep duration over control group: barbital sodium
mice [11] = assay: Hypoxic (hypercapnic) normobaric hypoxia, lifespan; assay type: in vivo; details: for Average lifespan: control 411 ± 11.9, P < 0.001; for Lifespan, % effect: control = 100
Description: as §2

In the case of `CC(C)(CO)C(=O)C(=O)NCCCC(=O)O` [KPA-Ca, calcium salt of ketopantoyl aminobutyrate], the LD50 ([1]; intravenous, read-out: DL50 (the source's name)) is reported as 1040 ± 13.5 mg/kg, the MTD ([1]; ip, read-out: maximum tolerance level) is reported as 1500 mg/kg and the “LD10 (acute toxicity)” value (mice [2]) is reported as 2234.3 ± 60.7 mg/kg. The “ataxia, myorelaxation, loss of movement coordination” value (mice [3]) was “did not induce any ataxia, myorelaxation or loss of movement coordination”, the “effect on exploratory behaviour” value (mice [4]) was “does not disturb the "exploratory" behaviour” and the “Average lifespan” value (mice [5]; 10 mg/kg + Na-nitro-prussiate 20 mg/kg) was 798 ± 38 s. For the same compound, the “Lifespan, % effect” value (mice [5]; 10 mg/kg) was 104.3%, the “Average lifespan” value (mice [5]; 25 mg/kg + Na-nitro-prussiate 20 mg/kg) was 855 ± 43.2 s and the “Lifespan, % effect” value (mice [5]; 25 mg/kg) was 111.8%. For the same compound, the increase in lifespan (mice [5]; 50 mg/kg) was 21.6%, the “Average lifespan” value (mice [5]; 50 mg/kg + Na-nitro-prussiate 20 mg/kg, P < 0.05) was 930 ± 55.1 s and the “Lifespan, % effect” value (mice [5]; 50 mg/kg) was 121.6%. The increase in lifespan (mice [5]; 100 mg/kg) was 38.4%, the “Average lifespan” value (mice [5]; 100 mg/kg + Na-nitro-prussiate 20 mg/kg, P < 0.01) was 1059 ± 64 s and the “Lifespan, % effect” value (mice [5]; 100 mg/kg) was 138.4%. For the same compound, the “Average lifespan” value (mice [6]; 10 mg/kg + Na-nitrite 400 mg/kg) was 777 ± 30.1 s, the “Lifespan, % effect” value (mice [6]; 10 mg/kg) was 98.3% and the “Average lifespan” value (mice [6]; 25 mg/kg + Na-nitrite 400 mg/kg) was 780 ± 30.3 s. For the same compound, the “Lifespan, % effect” value (mice [6]; 25 mg/kg) was 98.7%, the “Average lifespan” value (mice [6]; 50 mg/kg + Na-nitrite 400 mg/kg) was 819 ± 41 s and the “Lifespan, % effect” value (mice [6]; 50 mg/kg) was 103.6%. For the same compound, the “increase in effect (lifespan)” value (mice [6]; 100 mg/kg) was 19.9%, the “Average lifespan” value (mice [6]; 100 mg/kg + Na-nitrite 400 mg/kg, P < 0.01) was 948 ± 40.3 s and the “Lifespan, % effect” value (mice [6]; 100 mg/kg) was 119.9%. For the same compound, the “activity in hemic hypoxia (in words)” value (mice [6]; 10 to 100 mg/kg) was “little activity”, the hygroscopicity [7] was “hygroscopic” and the “properties compared with the other salts” value (central nervous system) was “best properties”. For the same compound, the “decrease in number of runs in the motor meter (the same result)” value (mice [8]; 10 mg/kg) was 30%, the “dose for 30% decrease in runs, compared with pantogam dose” value (mice [8]; 10 mg/kg KPA-Ca vs 500 mg/kg pantogam) was 50 times less and the “Average SMA, M ± m” value (mice [8]; 10 mg/kg i.p., 60 min before, number of runs) was 482.8 ± 101.8. For the same compound, the “Relative change in activity (%)” value (mice [8]; 10 mg/kg i.p.) was 76.3%, the “Average SMA, M ± m” value (mice [8]; 25 mg/kg i.p., P < 0.01) was 369.1 ± 68.7 and the “Relative change in activity (%)” value (mice [8]; 25 mg/kg i.p.) was 58.3%. For the same compound, the “Average SMA, M ± m” value (mice [8]; 50 mg/kg i.p., P < 0.01) was 338.9 ± 74.5, the “Relative change in activity (%)” value (mice [8]; 50 mg/kg i.p.) was 53.6% and the “Average SMA, M ± m” value (mice [8]; 100 mg/kg i.p., P < 0.01) was 270.4 ± 75.3. The “Relative change in activity (%)” value (mice [8]; 100 mg/kg i.p.) was 42.7%, the “decrease in motor activity (the same effect)” value (mice [8]; 150 mg/kg) was 70% and the “Average SMA, M ± m” value (mice [8]; 150 mg/kg i.p., P < 0.001) was 190.6 ± 28.2. The “Relative change in activity (%)” value (mice [8]; 150 mg/kg i.p.) was 30.1%, the “dose of greatest effect on motor activity” value (mice [8]; SMA test, mice) was 150 mg/kg and the “effect on motor activity (in words)” value (mice [8]; SMA test, mice) was “decreases the motor activity”. For the same compound, the “Latent period before training” value (mice [9]; 10 mg/kg i.p., 40 min before training) was 27.1 s, the “Latent period after training” value (mice [9]; 10 mg/kg i.p.) was 90.3 s and the “% effect (latent period)” value (mice [9]; 10 mg/kg i.p.) was 334.4%. The “Δt, increase in latent period (t ± m, sec)” value (from here on “Δt, increase in latent period”) (mice [9]; 10 mg/kg i.p., spread 12.6, P < 0.01) was 63.2 s, the “Latent period before training” value (mice [9]; 25 mg/kg i.p.) was 31.4 s and the “Latent period after training” value (mice [9]; 25 mg/kg i.p.) was 102.4 s. For the same compound, the “Δt, increase in latent period” value (mice [9]; 25 mg/kg i.p., P < 0.001) was 71 ± 9 s, the “% effect (latent period)” value (mice [9]; 25 mg/kg i.p.) was 396.1% and the “Latent period before training” value (mice [9]; 50 mg/kg i.p.) was 30.6 s. The “Latent period after training” value (mice [9]; 50 mg/kg i.p.) was 77.8 s, the “% effect (latent period)” value (mice [9]; 50 mg/kg i.p.) was 254.2% and the “Δt, increase in latent period” value (mice [9]; 50 mg/kg i.p., spread 13.3, P < 0.01) was 47.2 s. The “Latent period before training” value (mice [9]; 100 mg/kg i.p.) was 31.8 s, the “Latent period after training” value (mice [9]; 100 mg/kg i.p.) was 82.8 s and the “Δt, increase in latent period” value (mice [9]; 100 mg/kg i.p., P < 0.01) was 51 ± 14.1 s. For the same compound, the “% effect (latent period)” value (mice [9]; 100 mg/kg i.p.) was 260.4%, the “anti-amnesic effect (in words)” value (mice [9]; electric shock amnesia) was “counteracted the amnesic effect of the electric shock” and the “Duration of sleep, % effect” value (mice [10]; 1 mg/kg) was 99.9%. The “Lateral position, % effect” value (mice [10]; 1 mg/kg) was 69.6%, the “Duration of sleep, % effect” value (mice [10]; 10 mg/kg) was 122.7% and the “Lateral position, % effect” value (mice [10]; 10 mg/kg) was 61.4%. The “increase of sleep duration over control group” value (from here on “increase of sleep duration”) (mice [10]; 25 mg/kg) was 126.5%, the “Duration of sleep, % effect” value (mice [10]; 25 mg/kg) was 226.5% and the “Lateral position, % effect” value (mice [10]; 25 mg/kg) was 67.3%. The “increase of sleep duration” value (mice [10]; 50 mg/kg) was 95.1% and 95%, the “Duration of sleep, % effect” value (mice [10]; 50 mg/kg) was 195.1% and the “Lateral position, % effect” value (mice [10]; 50 mg/kg) was 68.7%. For the same compound, the “Duration of sleep, % effect” value (mice [10]; 100 mg/kg) was 229.3%, the “Lateral position, % effect” value (mice [10]; 100 mg/kg) was 66.7% and the “increase of sleep duration” value (mice [10]) was 129.3%. The “Average lifespan” value (mice [11]; 10 mg/kg) was 558 ± 21.5 s, the “Lifespan, % effect” value (mice [11]; 10 mg/kg) was 135.8% and the “Average lifespan” value (mice [11]; 25 mg/kg) was 570 ± 17.3 s. For the same compound, the “Lifespan, % effect” value (mice [11]; 25 mg/kg) was 138.7%, the “Average lifespan” value (mice [11]; 50 mg/kg) was 588 ± 22.4 s and the “Lifespan, % effect” value (mice [11]; 50 mg/kg) was 143.1%. For the same compound, the “Average lifespan” value (mice [11]; 100 mg/kg) was 600 ± 30.7 s, the “Lifespan, % effect” value (mice [11]; 100 mg/kg) was 146% and the “extension of lifespan compared to control group” value (mice [11]; 10 to 100 mg/kg) was 35.8-46%.
